These results are taken from US11053213B2, “Pharmaceutical compounds” (ALMAC DISCOVERY LIMITED, priority 2016, dated 2021).

Each structure is given as a SMILES string.

Sequence of USP19 (O94966 whole entry): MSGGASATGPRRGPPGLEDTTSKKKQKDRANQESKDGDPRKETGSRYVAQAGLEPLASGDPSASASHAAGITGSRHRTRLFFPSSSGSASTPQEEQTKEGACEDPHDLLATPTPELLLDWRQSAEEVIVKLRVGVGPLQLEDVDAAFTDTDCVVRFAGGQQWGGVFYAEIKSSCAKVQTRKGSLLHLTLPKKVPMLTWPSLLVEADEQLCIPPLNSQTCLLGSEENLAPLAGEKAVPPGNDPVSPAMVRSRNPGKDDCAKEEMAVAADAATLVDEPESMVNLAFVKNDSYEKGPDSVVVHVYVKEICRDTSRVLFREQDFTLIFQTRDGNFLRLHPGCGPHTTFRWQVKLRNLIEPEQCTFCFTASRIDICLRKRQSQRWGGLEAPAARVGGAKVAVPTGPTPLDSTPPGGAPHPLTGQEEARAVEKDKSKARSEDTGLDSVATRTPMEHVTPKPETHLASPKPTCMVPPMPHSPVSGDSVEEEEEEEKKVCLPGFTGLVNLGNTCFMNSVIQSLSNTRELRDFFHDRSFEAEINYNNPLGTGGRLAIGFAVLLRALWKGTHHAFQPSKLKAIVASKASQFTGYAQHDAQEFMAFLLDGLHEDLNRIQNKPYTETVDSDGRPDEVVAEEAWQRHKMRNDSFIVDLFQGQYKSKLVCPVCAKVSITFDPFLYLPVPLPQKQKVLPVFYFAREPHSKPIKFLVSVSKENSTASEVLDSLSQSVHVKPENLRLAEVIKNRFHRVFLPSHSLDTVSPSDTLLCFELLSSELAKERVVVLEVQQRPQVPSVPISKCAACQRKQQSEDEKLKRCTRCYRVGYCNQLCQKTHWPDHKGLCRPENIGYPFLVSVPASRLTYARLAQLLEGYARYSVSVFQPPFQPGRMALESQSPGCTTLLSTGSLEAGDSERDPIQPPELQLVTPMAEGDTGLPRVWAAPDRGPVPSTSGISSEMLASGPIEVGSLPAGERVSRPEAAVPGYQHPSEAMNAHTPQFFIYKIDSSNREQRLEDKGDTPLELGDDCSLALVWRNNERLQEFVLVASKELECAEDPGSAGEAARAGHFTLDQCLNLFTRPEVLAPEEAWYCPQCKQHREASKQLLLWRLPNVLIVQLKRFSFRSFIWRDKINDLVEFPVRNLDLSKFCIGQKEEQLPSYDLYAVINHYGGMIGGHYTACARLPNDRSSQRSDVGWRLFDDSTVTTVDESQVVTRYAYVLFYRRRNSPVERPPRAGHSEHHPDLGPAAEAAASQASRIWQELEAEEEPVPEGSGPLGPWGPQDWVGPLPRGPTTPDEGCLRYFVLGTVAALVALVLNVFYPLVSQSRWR

This assay addresses USP19 (Homo sapiens (Human), UniProt O94966). Nature of the assay: USP19 activity assay (fluorescence polarisation, Ubiquitin-Lys-TAMRA substrate). Type of assay: biochemical. To be noted: full-length USP19 2.5 nM, 30 min pre-incubation, Ub substrate 500 nM; average of at least two duplicate experiments. As to the method:
Unless otherwise stated, all other reagents were purchased from Sigma. Enzymatic reactions were conducted in black flat bottom polystyrene 384-well plates (Nunc) and 30 μL total volume. […] Inhibitors were stored as 10 mM DMSO stocks in an inert environment (low humidity, dark, low oxygen, room temperature) using the Storage Pod System and serial dilutions were prepared in buffer just prior to the assay (from 200 μM to 2 pM, 8-18 data point curve). Following incubation at RT for 30 min, the enzymatic reactions were initiated by dispensing the Ub substrate (500 nM, 10 μL). FP was measured every 15 min over a period of 90 min (within the linear range of the assay) using a Synergy 4 plate reader (BioTek) exciting at 530 nm and measuring the amount of parallel and perpendicular light at 575 nm. The FP signal was subsequently normalised to the no compound control.
In general terms: Fluorescence polarisation rises when a labelled molecule tumbles more slowly, as on binding a larger partner.
`CN(C)C(=O)c1cn(C[C@]2(O)CCN(C(=O)C(CC(F)(F)F)CC(F)(F)F)CC23CCCC3)c(=O)cc1-c1ccccc1` [Example 218, (S)-1-((10-Hydroxy-7-(4,4,4-trifluoro-2-(2,2,2-trifluoroethyl)butanoyl)-7-azaspiro[4.5]decan-10-yl)methyl)-N,N-dimethyl-6-oxo-4-phenyl-1,6-dihydropyridine-3-carboxamide]: the IC50 (usually the midpoint of a concentration-inhibition curve) lay within 0.5 to 5 µM.
As to `Cc1c(-c2cc(=O)n(CC3(O)CCN(C(=O)C[C@@H](C)c4ccccc4)CC3)cn2)cnn1C` [Example 112, (R)-6-(1,5-Dimethyl-1H-pyrazol-4-yl)-3-((4-hydroxy-1-(3-phenylbutanoyl)piperidin-4-yl)methyl)pyrimidin-4(3H)-one], the IC50 lay in the range of 50 to 250 µM.
To `C[C@H](CC(=O)N1CCC(O)(Cn2cc(-c3cccnc3)c(-c3ccccc3)cc2=O)CC1)c1ccccc1` [Example 99, (R)-1-((4-Hydroxy-1-(3-phenylbutanoyl)piperidin-4-yl)methyl)-4-phenyl-[3,3′-bipyridin]-6(1H)-one] belongs 5 to 50 µM; to `CC1(C)CN(C(=O)[C@H](CO)CC2CCC2)CCC1(O)Cn1cnc(-c2ccccc2F)cc1=O` (stereo partly drawn) [Example 200, 3-((1-((S)-3-Cyclobutyl-2-(hydroxymethyl)propanoyl)-4-hydroxy-3,3-dimethylpiperidin-4-yl)methyl)-6-(2-fluorophenyl)pyrimidin-4(3H)-one], 0.5 to 5 µM; to `C[C@H](CC(=O)N1CCC(O)(Cn2cc(-c3ccccc3C#N)c(-c3ccccc3)cc2=O)CC1)c1ccccc1` [Example 106, (R)-2-(1-((4-Hydroxy-1-(3-phenylbutanoyl)piperidin-4-yl)methyl)-6-oxo-4-phenyl-1,6-dihydropyridin-3-yl)benzonitrile], 5 to 50 µM.
Consider `C[C@H](CC(=O)N1CCC(O)(Cn2cc(-c3cccc(C(N)=O)c3)c(-c3ccccc3)cc2=O)CC1)c1ccccc1` [Example 7, (R)-3-(1-((4-Hydroxy-1-(3-phenylbutanoyl)piperidin-4-yl)methyl)6-oxo-4-phenyl-1,6-dihydropyridin-3-yl)benzamide], for which the IC50 lay in the range of 0.5 to 5 µM.
To `CC(CC(F)(F)F)C(=O)N1CCC(O)(Cn2cnc(-c3ccccc3F)cc2=O)C(C)(C)C1` (centres unmarked) [Example 143, 6-(2-Fluorophenyl)-3-((4-hydroxy-3,3-dimethyl-1-(4,4,4-trifluoro-2-methylbutanoyl)piperidin-4-yl)methyl)pyrimidin-4(3H)-one] belongs 5 to 50 µM; to `C[C@H](CC1CCCCC1)C(=O)N1CCC(O)(Cn2cnc(-c3cncnc3)cc2=O)C(C)(C)C1` (stereo partly drawn) [Example 130, 1-((1-((R)-3-Cyclohexyl-2-methylpropanoyl)-4-hydroxy-3,3-dimethylpiperidin-4-yl)methyl)-[4,5′-bipyrimidin]-6(1H)-one], 0.5 to 5 µM; to `C[C@H](CC(=O)N1CCC(O)(Cn2cc(CN(C)C)c(-c3ccccc3)cc2=O)CC1)c1ccccc1` [Example 46, (R)-5-((Dimethylamino)methyl)-1-((4-hydroxy-1-(3-phenylbutanoyl)piperidin-4-yl)methyl)-4-phenylpyridin-2(1H)-one], 50 to 250 µM.
For `C[C@H](CC(=O)N1CCC(O)(Cn2cc(-c3ccccc3)c(Cl)cc2=O)CC1)c1ccccc1` [Example 10, (R)-4-Chloro-1-((4-hydroxy-1 (3-phenylbutanoyl)piperidin-4-yl)methyl)-5-phenylpyridin-2(1H)-one] the value was 50 to 250 µM; for `CN(C)C(=O)c1cn(CC2(O)CCN(C(=O)C34CC(C3)C4)CC23CCCC3)c(=O)cc1-c1ccccc1` (centres unmarked) [Example 191, 1-((7-(Bicyclo[1.1.1]pentane-1-carbonyl)-10-hydroxy-7-azaspiro[4.5]decan-10-yl)methyl)-N,N-dimethyl-6-oxo-4-phenyl-1,6-dihydropyridine-3-carboxamide], 50 to 250 µM.
